Laboratory results from the NIST ThermoML archive (doi:10.1021/je025606c).

Assays:
[1] = molar heat capacity at constant pressure; settings: Liquid
[2] = Liquid; for kinematic viscosity: Capillary tube (Ostwald / Ubbelohde) method; for mass density: 1000 kPa, Vibrating tube method

CCOCCOCC [1,2-diethoxyethane]
Settings	kinematic viscosity [m2/s]	molar heat capacity at constant pressure [J/K/mol]
[1], 312.57 K, 1 kPa	–	264.59
[1], 322.47 K, 1 kPa	–	265.54
[1], 332.37 K, 1 kPa	–	268.37
[1], 342.27 K, 1 kPa	–	270.86
[1], 352.18 K, 1 kPa	–	273.57
[1], 362.08 K, 1 kPa	–	276.17
[1], 371.98 K, 1 kPa	–	280.31
[1], 381.88 K, 1 kPa	–	283.03
[1], 391.78 K, 1 kPa	–	286.22
[1], 401.68 K, 1 kPa	–	289.88
[1], 411.58 K, 1 kPa	–	293.43
[1], 421.48 K, 1 kPa	–	296.97
[2], 283.15 K, 101.3 kPa	9.5e-07	–
[2], 293.15 K, 101.3 kPa	8.22e-07	–
[2], 303.15 K, 101.3 kPa	7.28e-07	–
[2], 313.15 K, 101.3 kPa	6.48e-07	–
[2], 323.15 K, 101.3 kPa	5.84e-07	–
[2], 333.15 K, 101.3 kPa	5.32e-07	–
[2], 343.15 K, 101.3 kPa	4.87e-07	–

[2]
Settings	mass density [kg/m3]
283.15 K	862.9
293.15 K	852.8
303.15 K	842.6
313.15 K	832.3
323.15 K	822
333.15 K	811.6
343.15 K	801.1
353.15 K	790.5
363.15 K	779.6
373.15 K	768.6
383.15 K	757.2
393.15 K	745.8
403.15 K	734
413.15 K	721.8
423.15 K	709.4

COCC(C)OCC(C)OC (stereo not drawn) [2-methoxy-1-(2-methoxy-1-methylethoxy)propane]
Settings	kinematic viscosity [m2/s]	molar heat capacity at constant pressure [J/K/mol]
[1], 312.57 K, 1000 kPa	–	328.67
[1], 322.47 K, 1000 kPa	–	332.56
[1], 332.37 K, 1000 kPa	–	336.62
[1], 342.27 K, 1000 kPa	–	340.35
[1], 352.18 K, 1000 kPa	–	345.22
[1], 362.08 K, 1000 kPa	–	349.92
[1], 371.98 K, 1000 kPa	–	354.14
[1], 381.88 K, 1000 kPa	–	359.49
[1], 391.78 K, 1000 kPa	–	364.69
[1], 401.68 K, 1000 kPa	–	369.71
[1], 411.58 K, 1000 kPa	–	373.93
[1], 421.48 K, 1000 kPa	–	381.23
[2], 283.15 K, 101.33 kPa	1.41e-06	–
[2], 293.15 K, 101.33 kPa	1.2e-06	–
[2], 303.15 K, 101.33 kPa	1.03e-06	–
[2], 313.15 K, 101.33 kPa	9.03e-07	–
[2], 323.15 K, 101.33 kPa	8.01e-07	–
[2], 333.15 K, 101.33 kPa	7.19e-07	–
[2], 343.15 K, 101.33 kPa	6.5e-07	–
[2], 353.15 K, 101.33 kPa	5.93e-07	–
[2], 363.15 K, 101.33 kPa	5.51e-07	–
[2], 373.15 K, 101.33 kPa	5.06e-07	–
[2], 383.15 K, 101.33 kPa	4.69e-07	–
[2], 393.15 K, 101.33 kPa	4.37e-07	–
[2], 403.15 K, 101.33 kPa	4.07e-07	–
[2], 413.15 K, 101.33 kPa	3.81e-07	–
[2], 423.15 K, 101.33 kPa	3.59e-07	–

[2]
Settings	mass density [kg/m3]
283.15 K	913
293.15 K	903.4
303.15 K	894
313.15 K	884.8
323.15 K	875.4
333.15 K	866
343.15 K	856.5
353.15 K	846.9
363.15 K	837
373.15 K	827.2
383.15 K	817.2
393.15 K	807.2
403.15 K	797.1
413.15 K	786.8
423.15 K	776.3

CCCCOCCOCCOCCOCCCC [5,8,11,14-tetraoxaoctadecane]
Settings	kinematic viscosity [m2/s]	molar heat capacity at constant pressure [J/K/mol]
[1], 312.57 K, 1000 kPa	–	544.45
[1], 322.47 K, 1000 kPa	–	547.86
[1], 332.37 K, 1000 kPa	–	553.9
[1], 342.27 K, 1000 kPa	–	559.14
[1], 352.18 K, 1000 kPa	–	564.65
[1], 362.08 K, 1000 kPa	–	571.48
[1], 371.98 K, 1000 kPa	–	578.82
[1], 381.88 K, 1000 kPa	–	584.33
[1], 391.78 K, 1000 kPa	–	589.58
[1], 401.68 K, 1000 kPa	–	597.71
[1], 411.58 K, 1000 kPa	–	603.75
[1], 421.48 K, 1000 kPa	–	612.15
[2], 283.15 K, 101.33 kPa	5.42e-06	–
[2], 293.15 K, 101.33 kPa	4.16e-06	–
[2], 303.15 K, 101.33 kPa	3.3e-06	–
[2], 313.15 K, 101.33 kPa	2.7e-06	–
[2], 323.15 K, 101.33 kPa	2.25e-06	–
[2], 333.15 K, 101.33 kPa	1.92e-06	–
[2], 343.15 K, 101.33 kPa	1.67e-06	–
[2], 353.15 K, 101.33 kPa	1.46e-06	–
[2], 363.15 K, 101.33 kPa	1.3e-06	–
[2], 373.15 K, 101.33 kPa	1.17e-06	–
[2], 383.15 K, 101.33 kPa	1.04e-06	–
[2], 393.15 K, 101.33 kPa	9.49e-07	–
[2], 403.15 K, 101.33 kPa	8.68e-07	–
[2], 413.15 K, 101.33 kPa	7.98e-07	–
[2], 423.15 K, 101.33 kPa	7.37e-07	–

[2]
Settings	mass density [kg/m3]
283.15 K	926.1
293.15 K	917.7
303.15 K	909.4
313.15 K	901.2
323.15 K	893
333.15 K	884.8
343.15 K	876.5
353.15 K	868.2
363.15 K	859.8
373.15 K	851.4
383.15 K	843
393.15 K	834.5
403.15 K	826.1
413.15 K	817.6
423.15 K	809.1
